Assay: Inhibition of PDGF-induced proliferation in RAOSMC
Set-up: species or system Rattus norvegicus
Compound `O=C1C(Cl)=C(Nc2ccccc2)C(=O)c2[nH]cnc21` has an IC50 of 5.5 µM and a pIC50 of 5.26.
`O=C1C(Cl)=C(Nc2cccc(Br)c2)C(=O)c2[nH]cnc21` gave an IC50 of 1.6 µM.
With `O=C1C(Br)=C(Nc2ccc(F)cc2)C(=O)c2[nH]cnc21` the IC50 was 1 µM and the pIC50 was 6.
`O=C1C(Br)=C(Nc2cccc(I)c2)C(=O)c2[nH]cnc21` gave an IC50 of 2.5 µM.
With `Cc1nc2c([nH]1)C(=O)/C(=N/c1ccc(F)c(F)c1F)C(Cl)=C2O` the IC50 was 0.8 µM.
`Cc1nc2c([nH]1)C(=O)/C(=N/c1ccccc1)C(Cl)=C2O` gave an IC50 of 0.8 µM.
`Cc1ccc(NC2=C(Br)C(=O)c3nc[nH]c3C2=O)cc1` showed an IC50 of 1 µM.
Compound `Cc1nc2c([nH]1)C(=O)/C(=N/c1cccc(Br)c1)C(Cl)=C2O` has an IC50 of 1 µM.
In the case of `Cc1nc2c([nH]1)C(=O)/C(=N/c1ccc(F)cc1)C(Cl)=C2O`, the IC50 is reported as 3 µM.
`O=C1C(Cl)=C(Nc2ccccc2)C(=O)c2[nH]c(C(F)(F)F)nc21` showed an IC50 of 50 µM.
In the case of `Cc1nc2c([nH]1)C(=O)/C(=N/c1cccc(Cl)c1)C(Cl)=C2O`, the IC50 is reported as 0.9 µM.
`O=C1C(Cl)=C(Nc2cccc(Cl)c2)C(=O)c2[nH]cnc21` showed an IC50 of 1.4 µM.
Compound `O=C1C(Cl)=C(Nc2cccc(I)c2)C(=O)c2[nH]cnc21` has an IC50 of 1.3 µM.
Compound `O=C1C(Br)=C(Nc2ccc(Cl)cc2)C(=O)c2[nH]cnc21` has an IC50 of 4 µM.
With `O=C1C(Br)=C(Nc2ccccc2)C(=O)c2[nH]cnc21` the IC50 was 1.1 µM.
`O=C1C(Cl)=C(Nc2ccc(I)cc2)C(=O)c2[nH]c(C(F)(F)F)nc21` showed an IC50 of 25 µM.
`O=C1C(Cl)=C(Nc2ccc(Cl)cc2)C(=O)c2[nH]c(C(F)(F)F)nc21` gave an IC50 of 15 µM and a pIC50 of 4.82.
In the case of `Cc1ccc(NC2=C(Cl)C(=O)c3nc(C(F)(F)F)[nH]c3C2=O)cc1`, the IC50 is reported as 40 µM.
Compound `O=C1C(Cl)=C(Nc2ccc(I)cc2)C(=O)c2[nH]cnc21` has an IC50 of 1.3 µM and a pIC50 of 5.89.
`O=C1C(Cl)=C(Nc2ccc(F)cc2)C(=O)c2[nH]c(C(F)(F)F)nc21` showed an IC50 of 12 µM.
With `Cc1nc2c([nH]1)C(=O)/C(=N/c1ccc(I)cc1)C(Cl)=C2O` the IC50 was 1 µM.
Compound `O=C1C(Cl)=C(Nc2ccc(F)cc2)C(=O)c2[nH]cnc21` has an IC50 of 1.2 µM.
Work on `O=C1C(Cl)=C(Nc2ccc(OC(F)(F)F)cc2)C(=O)c2[nH]c(-c3ccccn3)nc21` yielded an IC50 of 6 µM.
`O=C1C(Cl)=C(Nc2ccc(F)cc2)C(=O)c2[nH]c(-c3ccncc3)nc21` gave an IC50 of 50 µM.
`O=C1C=C(Nc2ccc(Br)cc2)C(=O)c2[nH]c(-c3ccccn3)nc21` gave an IC50 of 12 µM.
`O=C1C=C(Nc2ccc(Cl)cc2)C(=O)c2[nH]c(-c3ccccn3)nc21` showed an IC50 of 13 µM.
`O=C1C=C(Nc2ccc(I)cc2)C(=O)c2[nH]c(-c3ccccn3)nc21` gave an IC50 of 20 µM.
`Cc1nc2c([nH]1)C(=O)/C(=N/c1ccc(F)cc1F)C(Cl)=C2O` gave an IC50 of 1.2 µM.
For `Cc1ccc(NC2=C(Cl)C(=O)c3nc[nH]c3C2=O)cc1`, the IC50 was 1.4 µM.
In the case of `O=C1C(Cl)=C(Nc2ccc(C(F)(F)F)cc2)C(=O)c2[nH]cnc21`, the IC50 is reported as 2.5 µM and the pIC50 is reported as 5.6.
`O=C1C(Cl)=C(Nc2ccc(C(F)(F)F)cc2)C(=O)c2[nH]c(C(F)(F)F)nc21` gave an IC50 of 20 µM.
With `Cc1ccc(NC2=C(Cl)C(=O)c3nc(C)[nH]c3C2=O)cc1` the IC50 was 0.8 µM.
For `Cc1nc2c([nH]1)C(=O)/C(=N/c1ccc(Cl)cc1)C(Cl)=C2O`, the IC50 was 2.8 µM and the pIC50 was 5.55.
`COc1ccc(NC2=C(Cl)C(=O)c3nc(-c4ccncc4)[nH]c3C2=O)cc1` showed an IC50 of 50 µM and a pIC50 of 4.3.
Work on `O=C1C(Cl)=C(Nc2ccc(F)cc2)C(=O)c2[nH]c(-c3cccnc3)nc21` yielded an IC50 of 21 µM.
With `O=C1C(Cl)=C(Nc2ccc(F)c(F)c2)C(=O)c2[nH]cnc21` the IC50 was 1.1 µM.
Compound `Cc1nc2c([nH]1)C(=O)/C(=N/c1ccc(Cl)cc1Cl)C(Cl)=C2O` has an IC50 of 0.8 µM.
`O=C1C(Br)=C(Nc2ccc(C(F)(F)F)cc2)C(=O)c2[nH]cnc21` showed an IC50 of 3.1 µM.
In the case of `Cc1nc2c([nH]1)C(=O)/C(=N/c1cccc(Cl)c1Cl)C(Cl)=C2O`, the IC50 is reported as 0.6 µM.
For `Cc1nc2c([nH]1)C(=O)/C(=N/c1ccc(C(F)(F)F)cc1)C(Cl)=C2O`, the IC50 was 0.6 µM.
With `Cc1cccc(NC2=C(Cl)C(=O)c3nc(-c4ccncc4)[nH]c3C2=O)c1` the IC50 was 60 µM.
For `O=C1C=C(Nc2ccc(OC(F)(F)F)cc2)C(=O)c2[nH]c(-c3ccccn3)nc21`, the IC50 was 20 µM.
Compound `O=C1C(Cl)=C(Nc2cccc(Cl)c2)C(=O)c2[nH]c(-c3ccccn3)nc21` has an IC50 of 3.5 µM.
Work on `Cc1ccc(NC2=C(Cl)C(=O)c3nc(-c4cccnc4)[nH]c3C2=O)cc1` yielded an IC50 of 45 µM and a pIC50 of 4.35.
`O=C1C(Cl)=C(Nc2cccc(F)c2)C(=O)c2[nH]c(-c3ccncc3)nc21` gave an IC50 of 19 µM.
`O=C1C(Cl)=C(Nc2cccc(Br)c2)C(=O)c2[nH]c(-c3ccncc3)nc21` gave an IC50 of 20 µM and a pIC50 of 4.7.
`CCOc1ccc(NC2=C(Cl)C(=O)c3nc(-c4cccnc4)[nH]c3C2=O)cc1` gave an IC50 of 42 µM.
In the case of `O=C1C(Cl)=C(Nc2ccc(OC(F)(F)F)cc2)C(=O)c2nc(-c3ccccn3)c(-c3ccccn3)nc21`, the IC50 is reported as 1 µM.
With `O=C1C(Cl)=C(Nc2ccc(F)cc2F)C(=O)c2[nH]cnc21` the IC50 was 2.7 µM.
`Cc1nc2c(nc1C)C(=O)C(Nc1ccc(F)cc1)=CC2=O` showed an IC50 of 3.1 µM and a pIC50 of 5.51.
In the case of `Cc1nc2c(nc1C)C(=O)C(Nc1ccc(Cl)cc1)=CC2=O`, the IC50 is reported as 3.3 µM.
`Cc1nc2c(nc1C)C(=O)C(Nc1ccc(Br)cc1)=CC2=O` showed an IC50 of 1.1 µM.
With `O=C1C(Cl)=C(Nc2ccc(Br)cc2)C(=O)c2[nH]cnc21` the IC50 was 2 µM.
For `O=C1C(Cl)=C(Nc2ccc(Cl)cc2)C(=O)c2nc(-c3ccccn3)c(-c3ccccn3)nc21`, the IC50 was 1.5 µM and the pIC50 was 5.82.
`O=C1C(Cl)=C(Nc2ccc(O)cc2)C(=O)c2nc(-c3ccccn3)c(-c3ccccn3)nc21` gave an IC50 of 5.5 µM and a pIC50 of 5.26.
`Cc1nc2c([nH]1)C(=O)C(Nc1ccc(OC(F)(F)F)cc1)=C(Cl)C2=O` gave an IC50 of 3 µM.
Work on `O=C1C(Cl)=C(Nc2cc(F)c(F)c(F)c2)C(=O)c2nc(-c3ccccn3)c(-c3ccccn3)nc21` yielded an IC50 of 1.2 µM.
With `N#Cc1ccc(NC2=C(Cl)C(=O)c3nc[nH]c3C2=O)cc1` the IC50 was 2.7 µM.
With `Cc1nc2c(nc1C)C(=O)C(Nc1cc(F)cc(F)c1)=CC2=O` the IC50 was 4.5 µM.
With `O=C1C(Cl)=C(Nc2ccccc2)C(=O)c2nc(-c3ccccn3)c(-c3ccccn3)nc21` the IC50 was 3.1 µM.
`Cc1nc2c(nc1C)C(=O)C(Nc1ccc(Cl)c(Cl)c1)=CC2=O` showed an IC50 of 3.8 µM.
In the case of `O=C1C(Cl)=C(Nc2ccc(F)cc2)C(=O)c2nc(-c3ccccn3)c(-c3ccccn3)nc21`, the IC50 is reported as 1 µM.
Work on `O=C1C(Br)=C(Nc2cccc(Br)c2)C(=O)c2[nH]cnc21` yielded an IC50 of 5.3 µM.
In the case of `O=C1C(Cl)=C(Nc2ccc(OC(F)(F)F)cc2)C(=O)c2[nH]cnc21`, the IC50 is reported as 2.5 µM.
`O=C1C(Cl)=C(Nc2cccc(Br)c2)C(=O)c2[nH]c(-c3ccccn3)nc21` showed an IC50 of 20 µM.
For `CCOc1ccc(NC2=C(Cl)C(=O)c3nc(-c4ccncc4)[nH]c3C2=O)cc1`, the IC50 was 75 µM.
With `CCOc1ccc(NC2=CC(=O)c3nc(C)c(C)nc3C2=O)cc1` the IC50 was 1.5 µM.
`O=C1C(Br)=C(Nc2cccc(C(F)(F)F)c2)C(=O)c2[nH]cnc21` showed an IC50 of 3 µM.
Compound `CCc1ccc(NC2=C(Cl)C(=O)c3nc(C)[nH]c3C2=O)cc1` has an IC50 of 3 µM and a pIC50 of 5.52.
With `O=C1C(Cl)=C(Nc2ccccc2F)C(=O)c2[nH]cnc21` the IC50 was 1.7 µM and the pIC50 was 5.77.
`O=C1C(Cl)=C(Nc2cccc(Cl)c2)C(=O)c2[nH]c(-c3ccncc3)nc21` gave an IC50 of 31 µM.
With `O=C1C(Cl)=C(Nc2ccc(Cl)c(Cl)c2)C(=O)c2[nH]c(-c3ccncc3)nc21` the IC50 was 13 µM.
Work on `O=C1C(Cl)=C(Nc2ccc(Cl)c(Cl)c2)C(=O)c2nc(-c3ccccn3)c(-c3ccccn3)nc21` yielded an IC50 of 1 µM.
Compound `O=C1C(Cl)=C(Nc2ccc(Cl)c(F)c2)C(=O)c2[nH]c(-c3ccncc3)nc21` has an IC50 of 25 µM and a pIC50 of 4.6.
With `COc1ccc(NC2=C(Cl)C(=O)c3nc(-c4ccccn4)c(-c4ccccn4)nc3C2=O)cc1` the IC50 was 3.5 µM and the pIC50 was 5.46.
For `O=C1C(Br)=C(Nc2cccc(Cl)c2)C(=O)c2[nH]cnc21`, the IC50 was 3 µM.
`O=C1C(Cl)=C(Nc2ccc(Br)cc2)C(=O)c2[nH]c(-c3ccncc3)nc21` gave an IC50 of 60 µM.
`O=C1C(Cl)=C(Nc2ccc(Cl)cc2)C(=O)c2[nH]c(-c3cccnc3)nc21` gave an IC50 of 20 µM.
Compound `O=C1C(Cl)=C(Nc2ccc(Br)cc2)C(=O)c2[nH]c(-c3ccccn3)nc21` has an IC50 of 6.5 µM.
For `O=C1C(Cl)=C(Nc2ccc(Cl)cc2)C(=O)c2[nH]c(-c3ccccn3)nc21`, the IC50 was 12 µM.
Work on `CCOc1ccc(NC2=CC(=O)c3nc(-c4ccccn4)[nH]c3C2=O)cc1` yielded an IC50 of 6.5 µM.

From ChEMBL document CHEMBL1142541, “3D-QSAR studies of heterocyclic quinones with inhibitory activity on vascular smooth muscle cell proliferation using pharmacophore-based alignment” (Bioorg Med Chem, 2008)
